The test system of one series is Female Lewis rats. Briefly: Toxicity in Female Lewis rats. To be noted: 100 mg/kg ip, in comparison with PBS control. It counts as in vivo. The procedure: The next set of experiments was designed to determine the toxicity of the compounds. Each compound was administered to Female Lewis rats at a dose of 100 mg/kg via ip administration.
In the next series the target is T1, 5-HT1A receptor (Homo sapiens, UniProt P08908).
T1 sequence (P08908 1-422): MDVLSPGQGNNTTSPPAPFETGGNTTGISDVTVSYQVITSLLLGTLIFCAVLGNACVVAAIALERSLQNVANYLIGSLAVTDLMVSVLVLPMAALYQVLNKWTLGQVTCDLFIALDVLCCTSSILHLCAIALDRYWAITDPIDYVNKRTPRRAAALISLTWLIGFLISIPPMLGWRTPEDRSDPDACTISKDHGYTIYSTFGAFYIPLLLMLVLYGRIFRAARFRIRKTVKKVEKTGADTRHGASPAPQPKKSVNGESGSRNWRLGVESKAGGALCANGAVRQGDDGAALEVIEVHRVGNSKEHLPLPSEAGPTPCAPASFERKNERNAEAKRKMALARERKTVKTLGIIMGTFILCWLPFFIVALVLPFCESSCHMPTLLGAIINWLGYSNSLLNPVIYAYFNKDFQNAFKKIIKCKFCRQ
Briefly: 5-HT1A receptor binding. The following applies: versus fluphenazine (ICI-1175), FIG. 8. The procedure: (§1) The methods employed in this study have been adapted from the scientific literature to maximize reliability and reproducibility. Where presented, IC50 values were determined by a non-linear, least squares regression analysis using the DATA ANALYSIS TOOLBOX (MDL Information Systems, San Leandro, Calif., USA). Where inhibition constants (Ki) are presented, the Ki values were calculated using the equation of Cheng and Prusoff (Cheng, Y., Prusoff, W. H., Biochem. Pharmacol. 22:3099-3108, 1973) or equivalent using the observed IC50 of the tested compound, the concentration of ligand employed in the assay, and historical values for the KD of the ligand.
(§2) The next set of experiments was designed to assess the selective binding of the test compounds to 5-HT receptors. ICI-848, ICI-1259, and ICI-1260 were tested against fluphenazine (ICI-1175) to determine selective binding to 5-HT receptors.

The target of another series is 5-HT4 receptor (Homo sapiens, UniProt Q13639). Briefly: 5-HT4 receptor binding. The following applies: versus fluphenazine (ICI-1175), FIG. 8. The procedure:
as §1
(§3) The experiments include contacting a serotonin type 1B, 2A, 2B, 2C, 3, 4, 6, and 7 receptor with a test compound and comparing the level of binding of serotonin or a control ligand with that serotonin type 1B, 2A, 2B, 2C, 3, 4, 6, and 7 receptor with the level of serotonin binding or control ligand binding with an otherwise identical serotonin type 1B, 2A, 2B, 2C, 3, 4, 6, and 7 receptor not contacted with the test compound. […] The skilled artisan would also appreciate, in view of the disclosure provided herein, that standard binding assays known in the art, or those to be developed in the future, can be used to assess the binding of serotonin or a control ligand with a serotonin type 1B. 2A, 2B, 2C, 3, 4, 6, and 7 receptor in the presence or absence of the test compound to identify a useful compound.
as §2
The next set of experiments was designed to assess the Ki values of the tested compounds.

In series [1] the test system is rat model of collagen-induced arthritis. Briefly: Rat model of collagen-induced arthritis, ankle diameter. It counts as in vivo. To be noted: for reduction of ankle diameter: 10 mg/kg ip daily, about 3 days, caliper measurement; for efficacy in reducing ankle diameter compared with Enbrel: rheumatoid arthritis rat model, versus Enbrel. The procedure: The next set of experiments was designed to test the ability of the compounds of the invention on a rat model of collagen-induced arthritis. Briefly, Female Lewis rats were immunized with bovine type 2 collagen 2 mg/mL in 0.01N HAc mixed 1:1 w/ FIA injected id 0.1 mL at each of three sites on back (Rosloniec, E. F., A. H. Kang, L. K. Myers, M. A. Cremer. 1996. Collagen-induced arthritis. R. Coico, and E. Shevach, eds. Current Protocols in Immunology 15.5.1. Weily & Sons, New York.).
FIG. 2 depicts a schematic of the collagen-induced arthritis protocol. Briefly, a test compound of the invention is delivered ip at 10 mg/kg daily, for about 3 days.
FIG. 4 depicts ICI 1260, 1259, 848, 849, 761, 715, and 847 with respect to Enbrel. Additional testing for the effectiveness of compounds ICI 1260, 1259, 848, 849, 761, 715, and 847 at various concentrations (10 mg/kg, 2 mg/kg, 0.4 mg/kg) were conducted, as illustrated in FIGS. 5A-5G. A dose response curve was constructed to illustrate the efficacy of the seven compounds (FIG. 6).

Series [2] deals with histamine type 1 receptor (Homo sapiens, UniProt P35367). Briefly: Binding to non-5-HT receptors: histamine type 1 receptor. To be noted: FIG. 12. The procedure:
as §1
The next set of experiments was designed to assess the selective binding of the test compounds to non-5-HT receptors. The compounds tested are as follows: ICI-735, 848, 849, 1259, and 1260. […] It was also observed that the compounds that bound well to 5-HT4 receptor also bound well to histamine type 1 receptor.

The next series has as its target 5-HT2A receptor (Homo sapiens, UniProt P28223). Briefly: 5-HT2A receptor binding. The following applies: versus fluphenazine (ICI-1175), FIG. 8. The procedure: as §1, §3, §2
Series [3] concerns B-cell neoplastic cell line RPMI 8226. Briefly: Inhibition of proliferation of RPMI cells. It counts as cell-based. To be noted: RPMI cell viability, FIG. 1. From the text: The next set of experiments was designed to assess compounds that have low levels of brain penetration for the ability of the test compounds to inhibit cellular proliferation. An exemplary in vitro assay is to screen for the ability of the test compounds to inhibit proliferation of the B-cell neoplastic cell line RPMI 8226 (a plasmacytoma derived from a multiple myeloma patient (Matsuoka, et al., 1967, Proc. Soc. Exp. Biol. Med. 125: 1246-1250). However other cell line can be used such as, U266 (established from an IgE-secreting myeloma patient (Nilsson, et al., 1970, Clin. Exp. Immunol., 7: 477-489) and ARH77 (an EBV transformed plasma cell leukemia (Burk, et al., 1978, Cancer Res. 38: 2508-2513).
FIG. 1 is a graph depicting the effects on the test compounds on RPMI cell viability.

“Also recorded” adds a separate entry of the source.

Chain of 5-HT4 receptor (Q13639 whole entry): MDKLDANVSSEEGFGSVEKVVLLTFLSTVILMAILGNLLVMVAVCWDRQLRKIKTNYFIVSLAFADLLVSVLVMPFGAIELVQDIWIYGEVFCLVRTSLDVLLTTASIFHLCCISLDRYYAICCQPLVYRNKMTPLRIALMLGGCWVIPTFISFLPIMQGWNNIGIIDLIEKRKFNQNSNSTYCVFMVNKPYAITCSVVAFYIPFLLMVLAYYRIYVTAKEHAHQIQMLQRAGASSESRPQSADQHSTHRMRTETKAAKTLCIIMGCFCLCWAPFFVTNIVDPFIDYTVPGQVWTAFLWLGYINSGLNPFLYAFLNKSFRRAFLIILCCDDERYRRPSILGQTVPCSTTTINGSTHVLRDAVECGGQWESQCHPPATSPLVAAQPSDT
Chain of histamine type 1 receptor (P35367 whole entry): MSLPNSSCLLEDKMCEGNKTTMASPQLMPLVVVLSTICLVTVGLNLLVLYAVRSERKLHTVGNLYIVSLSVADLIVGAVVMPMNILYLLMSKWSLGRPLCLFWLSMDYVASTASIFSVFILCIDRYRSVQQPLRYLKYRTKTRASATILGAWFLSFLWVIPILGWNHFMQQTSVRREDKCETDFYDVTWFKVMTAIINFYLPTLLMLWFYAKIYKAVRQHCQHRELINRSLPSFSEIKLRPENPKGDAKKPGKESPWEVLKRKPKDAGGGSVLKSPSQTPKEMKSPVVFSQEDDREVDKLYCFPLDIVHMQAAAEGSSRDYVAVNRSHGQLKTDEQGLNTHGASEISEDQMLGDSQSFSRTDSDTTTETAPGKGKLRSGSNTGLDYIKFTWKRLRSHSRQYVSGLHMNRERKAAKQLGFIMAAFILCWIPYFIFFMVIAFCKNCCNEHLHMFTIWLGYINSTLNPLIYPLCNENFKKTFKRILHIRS
Chain of 5-HT2A receptor (P28223 whole entry): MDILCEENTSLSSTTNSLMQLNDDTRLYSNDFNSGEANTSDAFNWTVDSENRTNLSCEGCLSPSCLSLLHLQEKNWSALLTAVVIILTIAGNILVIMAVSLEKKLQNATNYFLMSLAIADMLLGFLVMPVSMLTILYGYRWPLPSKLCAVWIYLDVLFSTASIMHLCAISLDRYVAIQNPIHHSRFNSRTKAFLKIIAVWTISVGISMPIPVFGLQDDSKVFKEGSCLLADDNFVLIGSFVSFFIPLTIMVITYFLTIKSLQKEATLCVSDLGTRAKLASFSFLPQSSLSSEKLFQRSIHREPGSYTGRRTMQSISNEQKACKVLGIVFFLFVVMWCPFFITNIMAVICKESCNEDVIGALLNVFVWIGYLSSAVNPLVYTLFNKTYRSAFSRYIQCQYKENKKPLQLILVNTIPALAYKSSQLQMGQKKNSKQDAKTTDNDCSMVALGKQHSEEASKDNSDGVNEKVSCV

Turning to `NCC(=O)NCCCN1CCC(CCCN2c3ccccc3Sc3ccc(C(F)(F)F)cc32)CC1` [ICI-01260], in the series with Female Lewis rats, the toxicity result was “not toxic”. The “binding to 5-HT1A receptor compared to fluphenazine” value on 5-HT1A receptor is on record as “decreased binding”. The “binding to 5-HT4 receptor compared to fluphenazine” value on 5-HT4 receptor is reported as “increased binding”. Moreover, the “reduction of ankle diameter” value in series [1] (listed as ICI-1260) is “decrease the ankle diameter to a desirable level; also recorded: most desirable reduction of ankle diameter”. Further, the “efficacy in reducing ankle diameter compared with Enbrel” value (from here on “efficacy in reducing ankle diameter”) in series [1] is listed as “more effective in reducing the ankle diameter than Enbrel”. In addition, the “binding to histamine type 1 receptor” value in series [2] is recorded as “able to bind histamine type 1 receptor”. Moreover, the “binding to 5-HT2A receptor compared to fluphenazine” value on 5-HT2A receptor is recorded as “decreased binding”. Also, the “ability to inhibit proliferation of RPMI cells” value (from here on “ability to inhibit proliferation”) in series [3] (listed as ICI-1260) was “able to inhibit the proliferation of RPMI cells”.

Take `NCC(=O)NCCN1CCC(CCCN2c3ccccc3Sc3ccc(C(F)(F)F)cc32)CC1` [ICI-00848]: the toxicity entry in the series on Female Lewis rats is reported as “not toxic”. Further, the “binding to 5-HT1A receptor compared to fluphenazine” value at 5-HT1A receptor is “decreased binding”. Moreover, the “binding to 5-HT4 receptor compared to fluphenazine” value at 5-HT4 receptor is given as “increased binding”. Besides, the “reduction of ankle diameter” value in series [1] (listed as ICI-848) is “decrease the ankle diameter to a desirable level; also recorded: most desirable reduction of ankle diameter”. Also, in series [1], the “efficacy in reducing ankle diameter” value is “more effective in reducing the ankle diameter than Enbrel”. Moreover, in series [2], the “binding to histamine type 1 receptor” value was “able to bind histamine type 1 receptor”. Moreover, the “binding to 5-HT2A receptor compared to fluphenazine” value at 5-HT2A receptor is on record as “decreased binding”. Further, the “ability to inhibit proliferation” value in series [3] is reported as “able to inhibit the proliferation of RPMI cells”.

`CNCC(=O)NCCCN1CCC(CCCN2c3ccccc3Sc3ccc(C(F)(F)F)cc32)CC1` [ICI-01259]: in the series on Female Lewis rats, the toxicity result was “not toxic”. Moreover, the “binding to 5-HT1A receptor compared to fluphenazine” value at 5-HT1A receptor is listed as “decreased binding”. Besides, at 5-HT4 receptor, the “binding to 5-HT4 receptor compared to fluphenazine” value is “increased binding”. Further, the “reduction of ankle diameter” value in series [1] (listed as ICI-1259) is reported as “decrease the ankle diameter to a desirable level; also recorded: most desirable reduction of ankle diameter”. For the same compound, the “efficacy in reducing ankle diameter” value in series [1] is “more effective in reducing the ankle diameter than Enbrel”. The “binding to histamine type 1 receptor” value in series [2] was “able to bind histamine type 1 receptor”. In addition, the “binding to 5-HT2A receptor compared to fluphenazine” value at 5-HT2A receptor is “decreased binding”. In addition, in series [3], the “ability to inhibit proliferation” value was “able to inhibit the proliferation of RPMI cells”.

Values taken from US20100035858A1, “Novel Compositions and Methods for Binding and Inhibiting 5-HT4 Receptor” (Immune Control, Inc., priority 2008, published 2010).
